Results reported in US11065232B2, “Dihydrotetrabenazine for the treatment of anxiety and psychoses” (ADEPTIO PHARMACEUTICALS LIMITED, priority 2017, dated 2021).

Columns and labels:
[1] = molecular target: Sigma 2 (h) (agonist radioligand) (Homo sapiens, UniProt Q5BJF2); experiment: Receptor protein binding studies, Sigma 2
Excerpt: (§1) The four 3,11b trans-dihydrotetrabenazine isomers (+)-α, (−)-α, (+)-β and (−)-β were subjected to specific binding assays to test their ability to bind to the receptors and transporter proteins described below. The results are set out in Table 1

[2] = molecular target: T1, alpha 2C (h) (antagonist radioligand) (Homo sapiens, UniProt P18825); experiment: Receptor protein binding studies, alpha 2C
T1 sequence (P18825 1-462): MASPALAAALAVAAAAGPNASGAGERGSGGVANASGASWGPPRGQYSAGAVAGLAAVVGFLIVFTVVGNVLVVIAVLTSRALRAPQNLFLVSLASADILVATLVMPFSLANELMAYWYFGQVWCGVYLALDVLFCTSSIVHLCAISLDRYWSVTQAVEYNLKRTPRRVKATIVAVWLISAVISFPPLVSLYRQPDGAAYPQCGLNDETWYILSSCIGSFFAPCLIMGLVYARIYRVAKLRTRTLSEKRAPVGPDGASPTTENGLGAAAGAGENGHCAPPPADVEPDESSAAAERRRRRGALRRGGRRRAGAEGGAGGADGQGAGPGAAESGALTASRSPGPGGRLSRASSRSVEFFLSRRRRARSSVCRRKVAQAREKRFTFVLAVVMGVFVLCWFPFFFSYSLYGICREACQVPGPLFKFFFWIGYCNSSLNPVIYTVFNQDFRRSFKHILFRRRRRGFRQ
Excerpt: as §1

[3] = molecular target: D5 (h) (antagonist radioligand) (Homo sapiens, UniProt P21918); experiment: Receptor protein binding studies, D5
Excerpt: as §1

[4] = molecular target: D1 (h) (antagonist radioligand) (Homo sapiens, UniProt P21728); experiment: Receptor protein binding studies, D1
Excerpt: as §1

[5] = molecular target: 5-HT5A(h) (Homo sapiens, UniProt P47898); experiment: Receptor protein binding studies, 5-HT5A
Excerpt: as §1

[6] = molecular target: T2, alpha 2A (h) (antagonist radioligand) (Homo sapiens, UniProt P08913); experiment: Receptor protein binding studies, alpha 2A
T2 sequence (P08913 1-465): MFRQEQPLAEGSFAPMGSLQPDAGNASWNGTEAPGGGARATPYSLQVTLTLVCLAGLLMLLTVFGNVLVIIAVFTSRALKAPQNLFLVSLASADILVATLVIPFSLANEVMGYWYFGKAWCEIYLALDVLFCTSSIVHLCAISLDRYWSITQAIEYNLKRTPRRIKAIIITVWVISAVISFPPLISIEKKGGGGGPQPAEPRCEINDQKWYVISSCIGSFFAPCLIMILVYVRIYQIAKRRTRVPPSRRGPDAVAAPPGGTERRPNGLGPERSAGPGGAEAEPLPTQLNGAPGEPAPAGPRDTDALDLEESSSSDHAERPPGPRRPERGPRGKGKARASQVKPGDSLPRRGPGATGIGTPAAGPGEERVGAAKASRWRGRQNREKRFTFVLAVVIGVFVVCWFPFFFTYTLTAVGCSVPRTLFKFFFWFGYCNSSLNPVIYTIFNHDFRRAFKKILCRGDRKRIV
Excerpt: as §1

[7] = molecular target: 5-HT2B (h) (agonist radioligand) (Homo sapiens, UniProt P41595); experiment: Receptor protein binding studies, 5-HT2B
Excerpt: as §1

[8] = tested on: I2 (antagonist radioligand); experiment: Receptor protein binding studies, I2
Excerpt: as §1

[9] = molecular target: D2S (h) (antagonist radioligand) (Homo sapiens, UniProt P14416); experiment: Receptor protein binding studies, D2S
Excerpt: as §1

[10] = molecular target: T3, alpha 1D (h) (antagonist radioligand) (Homo sapiens, UniProt P25100); experiment: Receptor protein binding studies, alpha 1D
T3 sequence (P25100 1-572): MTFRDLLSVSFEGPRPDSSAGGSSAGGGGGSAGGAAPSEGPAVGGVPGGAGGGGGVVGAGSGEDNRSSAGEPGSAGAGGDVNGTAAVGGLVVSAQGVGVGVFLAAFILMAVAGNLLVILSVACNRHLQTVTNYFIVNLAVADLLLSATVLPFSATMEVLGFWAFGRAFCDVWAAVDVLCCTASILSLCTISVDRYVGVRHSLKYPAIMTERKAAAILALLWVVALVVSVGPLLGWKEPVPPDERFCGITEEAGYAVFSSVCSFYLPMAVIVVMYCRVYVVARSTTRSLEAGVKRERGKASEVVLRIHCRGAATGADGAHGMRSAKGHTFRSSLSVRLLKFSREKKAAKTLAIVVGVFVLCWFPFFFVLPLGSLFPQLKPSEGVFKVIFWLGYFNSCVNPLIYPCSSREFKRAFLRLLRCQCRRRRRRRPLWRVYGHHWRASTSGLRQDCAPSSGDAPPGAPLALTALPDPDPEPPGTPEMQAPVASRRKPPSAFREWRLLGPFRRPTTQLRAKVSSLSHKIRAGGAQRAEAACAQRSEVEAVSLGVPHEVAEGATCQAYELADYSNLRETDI
Excerpt: as §1

[11] = molecular target: 5-HT4e (h) (antagonist radioligand) (Homo sapiens, UniProt Q13639); experiment: Receptor protein binding studies, 5-HT4e
Excerpt: as §1

[12] = molecular target: T4, alpha 1B (h) (antagonist radioligand) (Homo sapiens, UniProt P35368); experiment: Receptor protein binding studies, alpha 1B
T4 sequence (P35368 1-520): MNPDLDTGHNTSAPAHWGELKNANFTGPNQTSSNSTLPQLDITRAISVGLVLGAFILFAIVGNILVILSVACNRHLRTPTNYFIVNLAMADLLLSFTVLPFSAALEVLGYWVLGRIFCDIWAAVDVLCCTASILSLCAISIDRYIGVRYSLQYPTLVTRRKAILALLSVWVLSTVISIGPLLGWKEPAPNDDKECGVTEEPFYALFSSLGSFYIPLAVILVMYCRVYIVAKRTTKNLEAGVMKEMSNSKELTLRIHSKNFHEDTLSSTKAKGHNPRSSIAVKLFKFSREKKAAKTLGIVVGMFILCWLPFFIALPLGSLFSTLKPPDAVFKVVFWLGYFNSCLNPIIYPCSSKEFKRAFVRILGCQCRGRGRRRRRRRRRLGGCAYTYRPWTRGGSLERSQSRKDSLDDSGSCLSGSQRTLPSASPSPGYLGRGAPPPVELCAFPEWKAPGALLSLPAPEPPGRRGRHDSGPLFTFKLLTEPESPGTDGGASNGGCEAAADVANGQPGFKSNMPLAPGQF
Excerpt: as §1

Sigma 2 (h) (agonist radioligand), sequence (Q5BJF2 whole entry): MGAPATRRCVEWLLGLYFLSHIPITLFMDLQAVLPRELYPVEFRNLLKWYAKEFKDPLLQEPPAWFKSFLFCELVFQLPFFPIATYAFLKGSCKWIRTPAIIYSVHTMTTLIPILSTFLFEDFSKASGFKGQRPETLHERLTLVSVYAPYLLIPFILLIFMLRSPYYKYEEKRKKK
D1 (h) (antagonist radioligand), sequence (P21728 whole entry): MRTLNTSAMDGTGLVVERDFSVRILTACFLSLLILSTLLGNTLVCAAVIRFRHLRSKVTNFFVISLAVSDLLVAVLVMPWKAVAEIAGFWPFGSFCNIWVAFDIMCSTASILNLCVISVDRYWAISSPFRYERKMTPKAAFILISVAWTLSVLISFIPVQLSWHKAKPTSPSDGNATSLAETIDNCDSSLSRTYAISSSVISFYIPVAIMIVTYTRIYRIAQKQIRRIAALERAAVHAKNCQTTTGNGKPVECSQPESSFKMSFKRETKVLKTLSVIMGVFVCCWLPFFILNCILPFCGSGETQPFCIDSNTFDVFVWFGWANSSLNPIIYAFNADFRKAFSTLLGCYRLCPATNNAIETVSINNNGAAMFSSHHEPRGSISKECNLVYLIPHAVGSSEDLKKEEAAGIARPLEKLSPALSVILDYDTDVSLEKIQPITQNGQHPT
5-HT4e (h) (antagonist radioligand), sequence (Q13639 1-378 isoform Q13639-5): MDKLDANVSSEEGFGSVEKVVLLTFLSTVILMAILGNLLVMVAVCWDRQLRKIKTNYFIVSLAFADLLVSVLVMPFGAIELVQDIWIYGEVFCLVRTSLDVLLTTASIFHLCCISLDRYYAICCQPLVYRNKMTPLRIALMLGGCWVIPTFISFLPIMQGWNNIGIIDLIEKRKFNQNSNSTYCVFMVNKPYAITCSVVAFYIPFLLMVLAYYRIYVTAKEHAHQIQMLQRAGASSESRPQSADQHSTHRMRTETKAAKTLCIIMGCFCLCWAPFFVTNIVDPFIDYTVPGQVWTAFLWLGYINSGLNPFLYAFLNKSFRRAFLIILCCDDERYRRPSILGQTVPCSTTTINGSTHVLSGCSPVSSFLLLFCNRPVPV
D5 (h) (antagonist radioligand), sequence (P21918 whole entry): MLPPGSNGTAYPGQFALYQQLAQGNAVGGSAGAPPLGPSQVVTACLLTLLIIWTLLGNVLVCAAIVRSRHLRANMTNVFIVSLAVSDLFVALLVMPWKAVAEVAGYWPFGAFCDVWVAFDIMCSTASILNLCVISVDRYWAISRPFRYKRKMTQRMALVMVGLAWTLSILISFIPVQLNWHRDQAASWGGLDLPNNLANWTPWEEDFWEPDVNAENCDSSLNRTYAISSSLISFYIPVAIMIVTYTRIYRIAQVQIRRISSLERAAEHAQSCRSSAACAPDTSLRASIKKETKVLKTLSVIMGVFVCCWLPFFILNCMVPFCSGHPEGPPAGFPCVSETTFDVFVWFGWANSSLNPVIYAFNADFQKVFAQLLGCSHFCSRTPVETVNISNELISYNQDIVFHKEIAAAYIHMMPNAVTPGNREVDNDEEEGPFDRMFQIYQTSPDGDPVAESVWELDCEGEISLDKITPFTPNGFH
5-HT2B (h) (agonist radioligand), sequence (P41595 whole entry): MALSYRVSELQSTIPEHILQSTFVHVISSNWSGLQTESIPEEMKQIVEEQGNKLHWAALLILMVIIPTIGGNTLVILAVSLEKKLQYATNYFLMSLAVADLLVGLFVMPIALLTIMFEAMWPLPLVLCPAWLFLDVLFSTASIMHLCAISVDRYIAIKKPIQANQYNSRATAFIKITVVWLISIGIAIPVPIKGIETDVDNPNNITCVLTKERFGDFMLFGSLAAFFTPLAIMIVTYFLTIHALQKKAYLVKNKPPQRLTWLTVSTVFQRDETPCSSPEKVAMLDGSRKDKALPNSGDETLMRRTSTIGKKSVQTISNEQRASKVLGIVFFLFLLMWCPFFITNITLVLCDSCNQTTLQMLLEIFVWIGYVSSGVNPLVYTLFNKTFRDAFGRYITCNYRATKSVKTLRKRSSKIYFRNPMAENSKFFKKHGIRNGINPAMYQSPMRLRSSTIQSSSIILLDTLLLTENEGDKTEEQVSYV
D2S (h) (antagonist radioligand), sequence (P14416 1-414 isoform P14416-2): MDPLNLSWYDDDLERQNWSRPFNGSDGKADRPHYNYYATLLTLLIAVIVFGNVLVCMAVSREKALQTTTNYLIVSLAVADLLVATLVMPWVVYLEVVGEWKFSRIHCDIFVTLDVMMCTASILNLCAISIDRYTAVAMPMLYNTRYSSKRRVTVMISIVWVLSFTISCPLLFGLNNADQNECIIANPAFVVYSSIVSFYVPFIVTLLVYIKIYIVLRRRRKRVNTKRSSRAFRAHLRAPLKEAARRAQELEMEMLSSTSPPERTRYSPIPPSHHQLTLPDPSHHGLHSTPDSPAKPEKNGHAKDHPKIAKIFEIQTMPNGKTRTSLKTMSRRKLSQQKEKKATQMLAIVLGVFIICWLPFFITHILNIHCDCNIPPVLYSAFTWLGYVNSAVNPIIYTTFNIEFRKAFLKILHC
5-HT5A(h), sequence (P47898 whole entry): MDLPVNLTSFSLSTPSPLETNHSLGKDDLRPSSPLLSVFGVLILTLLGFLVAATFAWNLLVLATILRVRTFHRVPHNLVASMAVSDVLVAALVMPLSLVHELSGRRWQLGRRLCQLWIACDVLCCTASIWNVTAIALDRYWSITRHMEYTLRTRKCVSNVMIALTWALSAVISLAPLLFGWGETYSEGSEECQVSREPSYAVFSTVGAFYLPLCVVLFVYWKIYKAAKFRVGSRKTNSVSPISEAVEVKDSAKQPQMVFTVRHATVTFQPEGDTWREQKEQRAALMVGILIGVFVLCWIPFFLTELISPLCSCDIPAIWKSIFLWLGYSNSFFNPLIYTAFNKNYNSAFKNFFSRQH

Substance | % Inhibition of specific binding ([1]; CONC 1.0E−05 (unit not given)) [%] | % Inhibition of specific binding ([1]; CONC 1.0E−06 (unit not given)) [%] | % Inhibition of specific binding ([2]; CONC 1.0E−05 (unit not given)) [%] | % Inhibition of specific binding ([2]; CONC 1.0E−06 (unit not given)) [%] | % Inhibition of specific binding ([3]; CONC 1.0E−05 (unit not given)) [%] | % Inhibition of specific binding ([3]; CONC 1.0E−06 (unit not given)) [%] | % Inhibition of specific binding ([4]; CONC 1.0E−05 (unit not given)) [%] | % Inhibition of specific binding ([4]; CONC 1.0E−06 (unit not given)) [%] | % Inhibition of specific binding ([5]; CONC 1.0E−05 (unit not given)) [%] | % Inhibition of specific binding ([5]; CONC 1.0E−06 (unit not given)) [%] | % Inhibition of specific binding ([6]; CONC 1.0E−05 (unit not given)) [%] | % Inhibition of specific binding ([6]; CONC 1.0E−06 (unit not given)) [%] | % Inhibition of specific binding ([7]; CONC 1.0E−05 (unit not given)) [%] | % Inhibition of specific binding ([7]; CONC 1.0E−06 (unit not given)) [%] | % Inhibition of specific binding ([8]; CONC 1.0E−05 (unit not given)) [%] | % Inhibition of specific binding ([8]; CONC 1.0E−06 (unit not given)) [%] | % Inhibition of specific binding ([9]; CONC 1.0E−05 (unit not given)) [%] | % Inhibition of specific binding ([9]; CONC 1.0E−06 (unit not given)) [%] | % Inhibition of specific binding ([10]; CONC 1.0E−05 (unit not given)) [%] | % Inhibition of specific binding ([10]; CONC 1.0E−06 (unit not given)) [%] | also measured
(+)-α-dihydrotetrabenazine [(+)-Alpha] | 70 | 34 | 5 | 4 | −8 | −7 | −2 | 0 | −2 | −26 | 7 | 5 | 0 | −4 | 20 | 1 | 7 | −1 | −10 | 15 | % Inhibition of specific binding ([11]; CONC 1.0E−05 (unit not given)): 40%; % Inhibition of specific binding ([11]; CONC 1.0E−06 (unit not given)): 2%; % Inhibition of specific binding ([12]; CONC 1.0E−05 (unit not given)): 23%; % Inhibition of specific binding ([12]; CONC 1.0E−06 (unit not given)): −4%
(+)-β-dihydrotetrabenazine [(+)-Beta] | 85 | 41 | 12 | −7 | −5 | −8 | 8 | 0 | −13 | −23 | 11 | −1 | −7 | −2 | 11 | 6 | 7 | −8 | 20 | 18 | % Inhibition of specific binding ([11]; CONC 1.0E−05 (unit not given)): 19%; % Inhibition of specific binding ([11]; CONC 1.0E−06 (unit not given)): −4%; % Inhibition of specific binding ([12]; CONC 1.0E−05 (unit not given)): 1%; % Inhibition of specific binding ([12]; CONC 1.0E−06 (unit not given)): 3%
(−)-α-dihydrotetrabenazine [(−)-Alpha] | 85 | 52 | 69 | 17 | 23 | −3 | 45 | 5 | −6 | −24 | 65 | 30 | 92 | 55 | 12 | 13 | 73 | 22 | 25 | 13 | % Inhibition of specific binding ([11]; CONC 1.0E−05 (unit not given)): 26%; % Inhibition of specific binding ([11]; CONC 1.0E−06 (unit not given)): 4%; % Inhibition of specific binding ([12]; CONC 1.0E−05 (unit not given)): 14%; % Inhibition of specific binding ([12]; CONC 1.0E−06 (unit not given)): 9%
